Tests used:
[1] = system: tubulin; assay: in vitro tubulin polymerization (aggregation) assay, absorbance at 340 nm; format: biochemical; details: 4 μM taxol, tubulin 1.5 mg/ml in GPEM buffer, first ten minutes
Protocol: The M2(3) and a number of other high-score signals were tested for their ability to stabilize tubulin polymerization, employing the transduction system described above with reference to FIG. 7A. […] This assay has been described, for example, in Shelanski, M. L., Gaskin, F. and Cantor, C. R. (1973). Microtubule assembly in the absence of added nucleotides. Proc. Natl. Acad. Sci. U.S.A. 70, 765-768; and Lee, J. C. and Timasheff, S. N. (1977). In vitro reconstitution of calf brain microtubules: effects of solution variable. Biochemistry, 16, 1754-1762.
The M2(3) and a number of other high-score taxol signals were tested for their ability to stabilize tubulin polymerization. […] Change in optical absorption at 340 nm was measured continuously for each sample, and the OD340 data was used to calculate a rate of tubulin polymerization (dA/minute at 340 nm) at each one minute interval during the transduction study.
The results of the study, expressed as rate or tubulin polymerization over the first ten minutes of the study, are shown in FIGS. 9A and 9B.

[2] = system: tubulin; assay: electron microscopy of tubulin assay samples; format: biochemical; details: 10 minutes exposure to 4 μM taxol
From the text: The assay samples from above were examined by electron microscopy to confirm that the nature of the microtubule polymers formed in the assay, either by the addition of taxol or the taxol-derived time-domain signal. FIGS. 10A-10F are photo electron micrographs, taken at 21,000× and 52,000× magnification, of a tubulin suspension for untreated control (FIGS. 10A and 10B), cremaphore alone, FIGS. 10C, 10D), and the tubulin suspension exposed to the magnetic field of a white-noise signal. Each sample was allowed to incubate in the system cell for 10 minutes under the conditions described, then placed on ice and immediately after cooling, placed on an EM grid and fixed for with stain. No evidence of significant tubulin formation is observed in any of these samples.
FIGS. 12A-12D show the morphology of the tubulin assay samples after 10 minutes exposure to 4 μM taxol, where the samples were cooled after 10 minutes and prepared for EM as above.
FIGS. 13A-13D show the morphology of the tubulin assay samples after 10 minutes exposure to the above M2(3) taxol-derived time-domain signal. 4 μM taxol, where the samples were cooled after 10 minutes and prepared for EM as above.

[3] = system: U87 glioblastoma cells; assay: intracranial U87 glioblastoma tumor study in mice; format: in vivo; details: tumor-bearing animals treated with taxol compound over the same 23 day period
[4] = observation of side effects in treated tumor-bearing animals; format: in vivo, mice; details: animals treated with taxol; preliminary observations
From the text: Another potential advantage of signal therapy over the conventional drug therapy is the potential for reduced side effects.

CC(=O)O[C@H]1C(=O)[C@@]2(C)[C@H]([C@H](OC(=O)c3ccccc3)[C@]3(O)C[C@H](OC(=O)[C@H](O)[C@@H](NC(=O)c4ccccc4)c4ccccc4)C(C)=C1C3(C)C)[C@]1(OC(C)=O)CO[C@@H]1C[C@@H]2O [taxol, taxol (paclitaxel)]
increase in absorbance (tubulin polymerization) over the tubulin control [1]: increased more than twofold | morphology of tubulin assay samples (EM) [2]: A number of well-developed microtubular structures, including multi-lamellar structures are seen | tumor volume result compared with signal treatment [3]: A similar result was seen | side effects (activity, behavior, appetite) [4]: showed the expected signs of lethargy and loss of appetite

From patent US20130165734A1, “TIME-DOMAIN TRANSDUCTION SIGNALS AND METHODS OF THEIR PRODUCTION AND USE” (Nativis, Inc., priority 2009, published 2013)
